Laboratory results taken from patent US12668594B2, “TYK2 inhibitors and uses thereof” (Sudo Biosciences Limited, priority 2020, dated 2026).

Legend:
TYK2 [1] = target: T1, TYK2 (Homo sapiens, UniProt P29597); experiment: HEK-Blue IFNα/β reporter assay (SEAP) for TYK2 pseudokinase inhibition; format: cell-based; settings: HEK-Blue IFNα/β cells, 1 ng/mL human recombinant IFNα
Summary of the method: (§1)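 HEK-Blue cells carrying cytokine receptor and STAT3 or STAT1 SEAP reporter, pretreated 60 min with compound, then stimulated with 10 ng/mL IL-23 (22–24 h) or 1 ng/mL IFNα (16–18 h). SEAP read with QUANTI-Blue; IC50 by non-linear regression versus no-inhibitor and unstimulated controls.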

TYK2 [2] = target: T1, TYK2; experiment: HEK-Blue IL-23 reporter assay (SEAP) for TYK2 pseudokinase inhibition; format: cell-based; set-up: HEK-Blue™ IL-23 and IFNα/β cells with a stably-integrated cytokine receptor and STAT3 or STAT1; host or cells: HEK-Blue IL-23 / HEK-Blue IFNα/β cells (HEK293 background); settings: HEK-Blue IL-23 cells, 10 ng/mL human recombinant IL-23, SEAP reporter; read-out: IL23 IC50
Summary of the method: as §1

T1 sequence (P29597 whole entry): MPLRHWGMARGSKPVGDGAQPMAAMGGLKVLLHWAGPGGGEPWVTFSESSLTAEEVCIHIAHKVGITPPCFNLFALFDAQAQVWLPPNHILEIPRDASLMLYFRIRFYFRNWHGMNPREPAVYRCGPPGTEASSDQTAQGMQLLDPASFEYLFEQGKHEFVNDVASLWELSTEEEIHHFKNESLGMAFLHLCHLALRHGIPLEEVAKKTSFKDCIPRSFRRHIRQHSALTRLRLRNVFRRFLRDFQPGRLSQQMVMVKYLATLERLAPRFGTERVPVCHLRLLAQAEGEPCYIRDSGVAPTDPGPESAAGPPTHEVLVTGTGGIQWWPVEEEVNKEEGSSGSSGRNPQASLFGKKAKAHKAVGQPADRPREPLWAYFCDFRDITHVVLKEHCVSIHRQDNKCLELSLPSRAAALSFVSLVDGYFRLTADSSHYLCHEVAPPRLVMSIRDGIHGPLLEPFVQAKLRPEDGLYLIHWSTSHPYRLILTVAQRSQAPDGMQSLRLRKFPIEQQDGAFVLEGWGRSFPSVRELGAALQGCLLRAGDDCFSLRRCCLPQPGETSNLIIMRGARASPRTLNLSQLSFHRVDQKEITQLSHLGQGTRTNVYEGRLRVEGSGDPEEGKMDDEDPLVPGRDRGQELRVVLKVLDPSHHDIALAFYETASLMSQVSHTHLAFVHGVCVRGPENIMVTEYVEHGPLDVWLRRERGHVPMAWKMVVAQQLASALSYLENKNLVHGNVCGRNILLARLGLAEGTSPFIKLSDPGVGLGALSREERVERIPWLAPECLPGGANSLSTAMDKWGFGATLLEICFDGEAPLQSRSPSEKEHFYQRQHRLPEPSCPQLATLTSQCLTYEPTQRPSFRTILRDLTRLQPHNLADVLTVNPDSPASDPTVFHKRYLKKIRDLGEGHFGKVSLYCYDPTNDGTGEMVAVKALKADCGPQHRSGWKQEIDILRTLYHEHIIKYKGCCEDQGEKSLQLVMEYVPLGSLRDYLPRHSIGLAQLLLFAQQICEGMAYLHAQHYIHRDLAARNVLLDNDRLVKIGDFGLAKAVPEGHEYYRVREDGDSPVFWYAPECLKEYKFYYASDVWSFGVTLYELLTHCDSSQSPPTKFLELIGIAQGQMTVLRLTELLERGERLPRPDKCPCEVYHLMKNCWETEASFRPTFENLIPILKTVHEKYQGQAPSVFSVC

SMILES: COc1cc(-n2[nH]c(=O)c3cnc(Nc4ccc(F)cn4)cc32)ccc1C#N [Compound I-81, 4-(6-((5-fluoropyridin-2-yl)amino)-3-oxo-2,3-dihydro-1H-pyrazolo[4,3-c]pyridin-1-yl)-2-methoxybenzonitrile]
- IC50 (TYK2 [1]): > 90 µM
- IC50 (TYK2 [2]): < 10 µM

SMILES: COc1cc(-n2[nH]c(=O)c3cnc(NC(=O)C4CC4)cc32)ccc1C#N [Compound I-82, N-(1-(4-cyano-3-methoxyphenyl)-3-oxo-2,3-dihydro-1H-pyrazolo[4,3-c]pyridin-6-yl)cyclopropanecarboxamide]
- IC50 (TYK2 [1]): 10 to 30 µM
- IC50 (TYK2 [2]): < 10 µM

SMILES: COc1cc(-n2[nH]c(=O)c3cnc(Nc4cc(C)nc(C)n4)cc32)ccn1 [Compound I-83, 6-((2,6-dimethylpyrimidin-4-yl)amino)-1-(2-methoxypyridin-4-yl)-1,2-dihydro-3H-pyrazolo[4,3-c]pyridin-3-one]
- IC50 (TYK2 [1]): < 10 µM
- IC50 (TYK2 [2]): < 10 µM

SMILES: COc1cc(-n2[nH]c(=O)c3cnc(Nc4ccc(F)cn4)cc32)ccn1 [Compound I-84, 6-((5-fluoropyridin-2-yl)amino)-1-(2-methoxypyridin-4-yl)-1,2-dihydro-3H-pyrazolo[4,3-c]pyridin-3-one]
- IC50 (TYK2 [1]): < 10 µM
- IC50 (TYK2 [2]): < 10 µM

SMILES: Cc1cc(Nc2cc3c(cn2)c(=O)[nH]n3-c2ccc(Cl)c(Cl)c2)nc(C)n1 [Compound I-85, 1-(3,4-dichlorophenyl)-6-((2,6-dimethylpyrimidin-4-yl)amino)-1,2-dihydro-3H-pyrazolo[4,3-c]pyridin-3-one]
- IC50 (TYK2 [1]): > 90 µM
- IC50 (TYK2 [2]): > 90 µM

SMILES: O=c1[nH]n(-c2ccc(Cl)c(Cl)c2)c2cc(Nc3ccc(F)cn3)ncc12 [Compound I-86, 1-(3,4-dichlorophenyl)-6-((5-fluoropyridin-2-yl)amino)-1,2-dihydro-3H-pyrazolo[4,3-c]pyridin-3-one]
- IC50 (TYK2 [1]): > 90 µM
- IC50 (TYK2 [2]): > 90 µM

SMILES: Cc1cc(Nc2cc3c(cn2)c(=O)[nH]n3-c2ccc(C#N)c(Cl)c2)nc(C)n1 [Compound I-87, 2-chloro-4-(6-((2,6-dimethylpyrimidin-4-yl)amino)-3-oxo-2,3-dihydro-1H-pyrazolo[4,3-c]pyridin-1-yl)benzonitrile]
- IC50 (TYK2 [1]): > 90 µM
- IC50 (TYK2 [2]): < 10 µM

SMILES: N#Cc1ccc(-n2[nH]c(=O)c3cnc(NC(=O)C4CC4)cc32)cc1Cl [Compound I-89, N-(1-(3-chloro-4-cyanophenyl)-3-oxo-2,3-dihydro-1H-pyrazolo[4,3-c]pyridin-6-yl)cyclopropanecarboxamide]
- IC50 (TYK2 [1]): < 10 µM
- IC50 (TYK2 [2]): < 10 µM

SMILES: Cc1cc(Nc2cc3c(cn2)c(=O)[nH]n3-c2ccc(C#N)c(F)c2)nc(C)n1 [Compound I-90, 4-(6-((2,6-dimethylpyrimidin-4-yl)amino)-3-oxo-2,3-dihydro-1H-pyrazolo[4,3-c]pyridin-1-yl)-2-fluorobenzonitrile]
- IC50 (TYK2 [1]): < 10 µM
- IC50 (TYK2 [2]): < 10 µM

SMILES: Cc1cc(Nc2cc3c(cn2)c(=O)[nH]n3-c2ccc(C#N)c(C(F)(F)F)c2)nc(C)n1 [Compound I-91, 4-(6-((2,6-dimethylpyrimidin-4-yl)amino)-3-oxo-2,3-dihydro-1H-pyrazolo[4,3-c]pyridin-1-yl)-2-(trifluoromethyl)benzonitrile]
- IC50 (TYK2 [1]): < 10 µM
- IC50 (TYK2 [2]): < 10 µM

SMILES: N#Cc1ccc(-n2[nH]c(=O)c3cnc(Nc4ccc(F)cn4)cc32)cc1C(F)(F)F [Compound I-92, 4-(6-((5-fluoropyridin-2-yl)amino)-3-oxo-2,3-dihydro-1H-pyrazolo[4,3-c]pyridin-1-yl)-2-(trifluoromethyl)benzonitrile]
- IC50 (TYK2 [1]): < 10 µM
- IC50 (TYK2 [2]): < 10 µM

SMILES: N#Cc1ccc(-n2[nH]c(=O)c3cnc(NC(=O)C4CC4)cc32)cc1C(F)(F)F [Compound I-93, N-(1-(4-cyano-3-(trifluoromethyl)phenyl)-3-oxo-2,3-dihydro-1H-pyrazolo[4,3-c]pyridin-6-yl)cyclopropanecarboxamide]
- IC50 (TYK2 [1]): < 10 µM
- IC50 (TYK2 [2]): < 10 µM

SMILES: Cc1cc(Nc2cc3c(cn2)c(=O)[nH]n3-c2cc(Cl)cc(Cl)c2)nc(C)n1 [Compound I-96, 1-(3,5-dichlorophenyl)-6-((2,6-dimethylpyrimidin-4-yl)amino)-1,2-dihydro-3H-pyrazolo[4,3-c]pyridin-3-one]
- IC50 (TYK2 [1]): > 90 µM
- IC50 (TYK2 [2]): < 10 µM

SMILES: O=C(Nc1cc2c(cn1)c(=O)[nH]n2-c1cc(Cl)cc(Cl)c1)C1CC1 [Compound I-98, N-(1-(3,5-dichlorophenyl)-3-oxo-2,3-dihydro-1H-pyrazolo[4,3-c]pyridin-6-yl)cyclopropanecarboxamide]
- IC50 (TYK2 [1]): > 90 µM
- IC50 (TYK2 [2]): < 10 µM

SMILES: COc1c(F)cccc1-n1[nH]c(=O)c2cnc(Nc3cc(C)nc(C)n3)cc21 [Compound I-99, 6-((2,6-dimethylpyrimidin-4-yl)amino)-1-(3-fluoro-2-methoxyphenyl)-1,2-dihydro-3H-pyrazolo[4,3-c]pyridin-3-one]
- IC50 (TYK2 [1]): 10 to 30 µM
- IC50 (TYK2 [2]): < 10 µM

SMILES: COc1c(F)cccc1-n1[nH]c(=O)c2cnc(Nc3ccc(F)cn3)cc21 [Compound I-100, 1-(3-fluoro-2-methoxyphenyl)-6-((5-fluoropyridin-2-yl)amino)-1,2-dihydro-3H-pyrazolo[4,3-c]pyridin-3-one]
- IC50 (TYK2 [1]): > 90 µM
- IC50 (TYK2 [2]): > 90 µM

SMILES: COc1c(Cl)cccc1-n1[nH]c(=O)c2cnc(Nc3cc(C)nc(C)n3)cc21 [Compound I-101, 1-(3-chloro-2-methoxyphenyl)-6-((2,6-dimethylpyrimidin-4-yl)amino)-1,2-dihydro-3H-pyrazolo[4,3-c]pyridin-3-one]
- IC50 (TYK2 [1]): > 90 µM
- IC50 (TYK2 [2]): > 90 µM

SMILES: COc1c(Cl)cccc1-n1[nH]c(=O)c2cnc(Nc3ccc(F)cn3)cc21 [Compound I-102, 1-(3-chloro-2-methoxyphenyl)-6-((5-fluoropyridin-2-yl)amino)-1,2-dihydro-3H-pyrazolo[4,3-c]pyridin-3-one]
- IC50 (TYK2 [1]): > 90 µM
- IC50 (TYK2 [2]): 10 to 30 µM

SMILES: COc1c(-n2[nH]c(=O)c3cnc(Nc4cc(C)nc(C)n4)cc32)cccc1C(F)(F)F [Compound I-103, 6-((2,6-dimethylpyrimidin-4-yl)amino)-1-(2-methoxy-3-(trifluoromethyl)phenyl)-1,2-dihydro-3H-pyrazolo[4,3-c]pyridin-3-one]
- IC50 (TYK2 [1]): > 90 µM
- IC50 (TYK2 [2]): > 90 µM

SMILES: COc1c(-n2[nH]c(=O)c3cnc(Nc4ccc(F)cn4)cc32)cccc1C(F)(F)F [Compound I-104, 6-((5-fluoropyridin-2-yl)amino)-1-(2-methoxy-3-(trifluoromethyl)phenyl)-1,2-dihydro-3H-pyrazolo[4,3-c]pyridin-3-one]
- IC50 (TYK2 [1]): > 90 µM
- IC50 (TYK2 [2]): > 90 µM

SMILES: Cc1cc(Nc2cc3c(cn2)c(=O)[nH]n3-c2ccccc2C)nc(C)n1 [Compound I-105, 6-((2,6-dimethylpyrimidin-4-yl)amino)-1-(o-tolyl)-1,2-dihydro-3H-pyrazolo[4,3-c]pyridin-3-one]
- IC50 (TYK2 [1]): < 10 µM
- IC50 (TYK2 [2]): < 10 µM

SMILES: Cc1ccccc1-n1[nH]c(=O)c2cnc(Nc3ccc(F)cn3)cc21 [Compound I-106, 6-((5-fluoropyridin-2-yl)amino)-1-(0-tolyl)-1,2-dihydro-3H-pyrazolo[4,3-c]pyridin-3-one]
- IC50 (TYK2 [1]): 30 to 90 µM
- IC50 (TYK2 [2]): < 10 µM

SMILES: Cc1ccccc1-n1[nH]c(=O)c2cnc(NC(=O)C3CC3)cc21 [Compound I-107, N-(3-oxo-1-(o-tolyl)-2,3-dihydro-1H-pyrazolo[4,3-c]pyridin-6-yl)cyclopropanecarboxamide]
- IC50 (TYK2 [1]): < 10 µM
- IC50 (TYK2 [2]): < 10 µM

SMILES: CCc1ccccc1-n1[nH]c(=O)c2cnc(Nc3cc(C)nc(C)n3)cc21 [Compound I-108, 6-((2,6-dimethylpyrimidin-4-yl)amino)-1-(2-ethylphenyl)-1,2-dihydro-3H-pyrazolo[4,3-c]pyridin-3-one]
- IC50 (TYK2 [1]): 10 to 30 µM
- IC50 (TYK2 [2]): < 10 µM

SMILES: CCc1ccccc1-n1[nH]c(=O)c2cnc(Nc3ccc(F)cn3)cc21 [Compound I-109, 1-(2-ethylphenyl)-6-((5-fluoropyridin-2-yl)amino)-1,2-dihydro-3H-pyrazolo[4,3-c]pyridin-3-one]
- IC50 (TYK2 [1]): > 90 µM
- IC50 (TYK2 [2]): > 90 µM

SMILES: CCc1ccccc1-n1[nH]c(=O)c2cnc(NC(=O)C3CC3)cc21 [Compound I-110, N-(1-(2-ethylphenyl)-3-oxo-2,3-dihydro-1H-pyrazolo[4,3-c]pyridin-6-yl)cyclopropanecarboxamide]
- IC50 (TYK2 [1]): > 90 µM
- IC50 (TYK2 [2]): > 90 µM

SMILES: Cc1cc(Nc2cc3c(cn2)c(=O)[nH]n3-c2ccccc2F)nc(C)n1 [Compound I-111, 6-((2,6-dimethylpyrimidin-4-yl)amino)-1-(2-fluorophenyl)-1,2-dihydro-3H-pyrazolo[4,3-c]pyridin-3-one]
- IC50 (TYK2 [1]): < 10 µM
- IC50 (TYK2 [2]): < 10 µM

SMILES: O=c1[nH]n(-c2ccccc2F)c2cc(Nc3ccc(F)cn3)ncc12 [Compound I-112, 1-(2-fluorophenyl)-6-((5-fluoropyridin-2-yl)amino)-1,2-dihydro-3H-pyrazolo[4,3-c]pyridin-3-one]
- IC50 (TYK2 [1]): < 10 µM
- IC50 (TYK2 [2]): < 10 µM

SMILES: Cc1cc(Nc2cc3c(cn2)c(=O)[nH]n3-c2cccc(F)c2F)nc(C)n1 [Compound I-113, 1-(2,3-difluorophenyl)-6-((2,6-dimethylpyrimidin-4-yl)amino)-1,2-dihydro-3H-pyrazolo[4,3-c]pyridin-3-one]
- IC50 (TYK2 [1]): < 10 µM
- IC50 (TYK2 [2]): < 10 µM

SMILES: Cc1cc(Nc2cc3c(cn2)c(=O)[nH]n3C2CCCC2)nc(C)n1 [Compound I-114, 1-cyclopentyl-6-((2,6-dimethylpyrimidin-4-yl)amino)-1,2-dihydro-3H-pyrazolo[4,3-c]pyridin-3-one]
- IC50 (TYK2 [1]): < 10 µM
- IC50 (TYK2 [2]): < 10 µM

SMILES: O=c1[nH]n(C2CCCC2)c2cc(Nc3ccc(F)cn3)ncc12 [Compound I-115, 1-cyclopentyl-6-((5-fluoropyridin-2-yl)amino)-1,2-dihydro-3H-pyrazolo[4,3-c]pyridin-3-one]
- IC50 (TYK2 [1]): < 10 µM
- IC50 (TYK2 [2]): < 10 µM
